Literature values, collected in US20060110448A1, “Combination of a macrolide and a local anesthetic for the treatment of dermatological diseases” (priority 2003, published 2006).

Tested on: rat model of allogeneic kidney transplantation
Details: oral administration, suppression of systemic immune response

## C=CC[C@@H]1/C=C(\C)C[C@H](C)C[C@H](OC)[C@H]2O[C@@](O)(C(=O)C(=O)N3CCCC[C@H]3C(=O)O[C@H](/C(C)=C/[C@@H]3CC[C@@H](O)[C@H](OC)C3)[C@H](C)[C@@H](O)CC1=O)[C@H](C)C[C@@H]2OC [tacrolimus]
  minimum effective dose (MED): 14 mg/kg
